Results on 32 compounds are retold here after patent publication US12509454B2, “Thiadiazolyl derivatives” (IDEAYA Biosciences, Inc., priority 2019, dated 2025).

Structures are written as SMILES.

In the assay the target is Pol theta (1-899) (Homo sapiens (Human), UniProt O75417). Nature of the assay: Pol theta ATPase activity, NADH oxidation-coupled enzymatic assay. The note with it: Pol theta (1-899) 10 nM, ATP, dT50 ssDNA, absorbance 340 nm, 10-point dilution series; read-out: ATPase NADH coupling:Standard Screening:hPolQ IC50. It is filed as biochemical. In a few lines: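 Pol theta (1-899), 10 nM, preincubated 15 min at RT with 10-point compound series in Tris pH 7.80/KCl/MgCl2 buffer, then given 100 μM ATP plus 300 nM dT50 ssDNA with PK/LDH-coupled NADH oxidation. A340 followed for 30 min; rate slopes fitted with a four-parameter model for IC50.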
Chain of Pol theta (1-899) (O75417 1-899): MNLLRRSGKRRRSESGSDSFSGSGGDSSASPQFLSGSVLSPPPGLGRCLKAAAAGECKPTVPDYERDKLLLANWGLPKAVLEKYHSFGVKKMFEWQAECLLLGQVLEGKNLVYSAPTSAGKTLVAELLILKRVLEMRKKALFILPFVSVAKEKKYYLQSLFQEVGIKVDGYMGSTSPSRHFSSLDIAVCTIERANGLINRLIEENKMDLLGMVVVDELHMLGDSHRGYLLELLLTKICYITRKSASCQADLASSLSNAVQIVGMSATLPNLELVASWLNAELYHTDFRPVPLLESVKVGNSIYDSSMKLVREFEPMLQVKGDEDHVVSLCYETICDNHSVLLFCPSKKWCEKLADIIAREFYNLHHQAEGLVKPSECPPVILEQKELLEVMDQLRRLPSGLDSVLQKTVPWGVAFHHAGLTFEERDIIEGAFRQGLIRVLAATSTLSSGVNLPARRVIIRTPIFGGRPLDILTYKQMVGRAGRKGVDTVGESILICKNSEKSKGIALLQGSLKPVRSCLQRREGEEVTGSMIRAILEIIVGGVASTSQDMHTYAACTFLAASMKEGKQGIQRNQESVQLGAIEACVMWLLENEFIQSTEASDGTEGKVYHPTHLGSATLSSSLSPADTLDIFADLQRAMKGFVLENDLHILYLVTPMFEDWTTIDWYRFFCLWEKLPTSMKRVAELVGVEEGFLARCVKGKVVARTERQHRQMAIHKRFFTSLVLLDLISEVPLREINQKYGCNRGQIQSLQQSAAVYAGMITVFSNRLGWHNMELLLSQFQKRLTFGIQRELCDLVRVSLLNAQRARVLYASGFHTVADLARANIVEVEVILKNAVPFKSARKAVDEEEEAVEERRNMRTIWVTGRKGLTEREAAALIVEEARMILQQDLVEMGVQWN
Take `COc1ccccc1-n1nncc1C(=O)Nc1nnc(OCc2ccc(F)cc2)s1` [Example 82, N-(5-((4-fluorobenzyl)oxy)-1,3,4-thiadiazol-2-yl)-1-(2-methoxyphenyl)-1H-1,2,3-triazole-5-carboxamide]: the IC50 was not above 0.2 µM. Next, `CC1COCCN1c1ncccc1C(=O)Nc1nnc(OCc2ccc(Cl)cc2)s1` (racemic) [Example 5, (R) N-(5-((4-chlorobenzyl)oxy)-1,3,4-thiadiazol-2-yl)-2-(3-methylmorpholino)-nicotinamide and (S)—N-(5-((4-chlorobenzyl)oxy)-1,3,4-thiadiazol-2-yl)-2-(3-methylmorpholino)nicotinamide]: 0.2 to 0.5 µM.

As for `CN(C)C(=O)c1cc(N2CCOCC2)c(C(=O)Nc2nnc(OCc3ccc(Cl)cc3)s2)cn1` [Example 73, N^5-(5-((4-chlorobenzyl)oxy)-1,3,4-thiadiazol-2-yl)-N2,N2-dimethyl-4-morpholinopyridine-2,5-dicarboxamide], the IC50 was in the range of 1 to 10 µM.

On to `COc1ccccc1-c1ccncc1C(=O)Nc1nnc(OCc2ccc(Cl)cc2)s1` [Example 77, N-[5-[(4-chlorophenyl)methoxy]-1,3,4-thiadiazol-2-yl]-4-(2-methoxyphenyl)pyridine-3-carboxamide], for which the IC50 was not above 0.2 µM. Next, `O=C(Nc1nnc(OCc2ccc(Cl)cc2)s1)c1cncn1-c1ccccc1Cl` [Example 42, N-(5-((4-chlorobenzyl)oxy)-1,3,4-thiadiazol-2-yl)-1-(2-chlorophenyl)-1H-imidazole-5-carboxamide]: not above 0.2 µM; `COc1cccc(F)c1-c1cc(C#N)ncc1C(=O)Nc1nnc(OCc2ccc(Cl)cc2)s1` [Example 185, N-(5-((4-chlorobenzyl)oxy)-1,3,4-thiadiazol-2-yl)-6-cyano-4-(2-fluoro-6-methoxyphenyl)nicotinamide]: not above 0.2 µM; `O=C(Nc1nnc(OCc2ccc(Cl)cc2)s1)c1ccncc1N1CCCn2nccc21` [Example 142, N-[5-[(4-chlorophenyl)methoxy]-1,3,4-thiadiazol-2-yl]-3-[5H,6H,7H-pyrazolo[1,5-a]pyrimidin-4-yl]pyridine-4-carboxamide]: not above 0.2 µM. Next, `COc1ncccc1-c1ccncc1C(=O)Nc1nnc(OCc2ccc(Cl)cc2)s1` [Example 129, N-(5-((4-chlorobenzyl)oxy)-1,3,4-thiadiazol-2-yl)-2-methoxy-[3,4′-bipyridine]-3′-carboxamide]: 0.2 to 0.5 µM. Next, `COc1ccncc1-c1cnccc1C(=O)Nc1nnc(OCc2ccc(Cl)cc2)s1` [Example 133, N-(5-((4-chlorobenzyl)oxy)-1,3,4-thiadiazol-2-yl)-4′-methoxy-[3,3′-bipyridine]-4-carboxamide]: 0.5 to 1 µM; `C[C@@H]1COCCN1c1ncccc1C(=O)Nc1nnc(OCc2ccc(Cl)cc2)s1` [Example 9, (R)—N-(5-((4-chlorobenzyl)oxy)-1,3,4-thiadiazol-2-yl)-2-(3-methylmorpholino)nicotinamide]: 0.2 to 0.5 µM. Consider `O=C(Nc1nnc(OCc2ccc(Cl)cc2)s1)c1ccncc1-c1c(F)cccc1OC1COC1` [Example 143, N-(5-((4-chlorobenzyl)oxy)-1,3,4-thiadiazol-2-yl)-3-(2-fluoro-6-(oxetan-3-yloxy)phenyl)isonicotinamide], for which the IC50 was not above 0.2 µM.

As for `O=C(Nc1nnc(OCc2ccc(Cl)cn2)s1)c1cncn1-c1ccccc1OC(F)F` [Example 168, N-[5-[(5-chloropyridin-2-yl)methoxy]-1,3,4-thiadiazol-2-yl]-3-[2-(difluoromethoxy)phenyl]imidazole-4-carboxamide], the IC50 was not above 0.2 µM. To `COc1ccccc1-c1cnccc1C(=O)Nc1nnc(OCc2cccc3[nH]ncc23)s1` [Example 181, N-[5-(1H-indazol-4-ylmethoxy)-1,3,4-thiadiazol-2-yl]-3-(2-methoxyphenyl)pyridine-4-carboxamide] belongs not above 0.2 µM; to `NC(=O)c1ccc(C(=O)Nc2nnc(OCc3ccc(Cl)cc3)s2)c(N2CCOCC2)n1` [Example 21, N^5-(5-((4-chlorobenzyl)oxy)-1,3,4-thiadiazol-2-yl)-6-morpholinopyridine-2,5-dicarboxamide], 1 to 10 µM. `COc1cccc(OC)c1-c1ccncc1C(=O)Nc1nnc(OCc2ccc(Cl)cc2)s1` [Example 128, N-(5-((4-chlorobenzyl)oxy)-1,3,4-thiadiazol-2-yl)-4-(2,6-dimethoxyphenyl)nicotinamide]: the IC50 fell in the range of 0.5 to 1 µM.

Regarding `C[C@H]1COC[C@H](C)N1c1cnccc1C(=O)Nc1nnc(OCc2ccc(Cl)cc2)s1` [Example 110, N-(5-((4-chlorobenzyl)oxy)-1,3,4-thiadiazol-2-yl)-3-((3S,5S)-3,5-dimethylmorpholino)isonicotinamide], the IC50 is not above 0.2 µM. To `O=C(Nc1nnc(OCc2ccc(Cl)cc2)s1)c1cncn1-c1ccccc1` [Example 4, N-(5-((4-chlorobenzyl)oxy)-1,3,4-thiadiazol-2-yl)-1-phenyl-1H-imidazole-5-carboxamide] belongs 0.5 to 1 µM; to `COc1ccccc1-c1cc2cnnn2cc1C(=O)Nc1nnc(OCc2ccc(Cl)cn2)s1` [Example 223, N-[5-[(5-chloropyridin-2-yl)methoxy]-1,3,4-thiadiazol-2-yl]-5-(2-methoxyphenyl)-[1,2,3]triazolo[1,5-a]pyridine-6-carboxamide], not above 0.2 µM. To `Cc1cc(-c2ccccc2OC(F)F)c(C(=O)Nc2nnc(OCc3ccc(Cl)cc3)s2)cn1` [Example 114, N-[5-[(4-chlorophenyl)methoxy]-1,3,4-thiadiazol-2-yl]-4-[2-(difluoromethoxy)phenyl]-6-methylpyridine-3-carboxamide] belongs not above 0.2 µM. `COc1ccccc1-c1nc(C#N)ccc1C(=O)Nc1nnc(OCc2ccc(Cl)cc2)s1` [Example 71, N-(5-((4-chlorobenzyl)oxy)-1,3,4-thiadiazol-2-yl)-6-cyano-2-(2-methoxyphenyl)-nicotinamide]: the IC50 is not above 0.2 µM. As for `COc1ccccc1-c1cc(C)ncc1C(=O)Nc1nnc(OCc2ccc(Cl)cn2)s1` [Example 113, N-(5-((5-chloropyridin-2-yl)methoxy)-1,3,4-thiadiazol-2-yl)-4-(2-methoxyphenyl)-6-methylnicotinamide], the concentration for half-maximal inhibition (IC50) is not above 0.2 µM.

As for `COc1ccccc1-c1cnccc1C(=O)Nc1nnc(OCc2ccc(C3(C#N)CC3)cc2)s1` [Example 141, N-(5-[[4-(1-cyanocyclopropyl)phenyl]methoxy]-1,3,4-thiadiazol-2-yl)-3-(2-methoxyphenyl)pyridine-4-carboxamide], the 50% inhibitory concentration (IC50) was not above 0.2 µM.

`CC1CN(c2ncccc2C(=O)Nc2nnc(OCc3ccc(Cl)cc3)s2)CC(=O)N1` (racemic) [Example 46, (R) N-(5-((4-chlorobenzyl)oxy)-1,3,4-thiadiazol-2-yl)-2-(3-methyl-5-oxopiperazin-1-yl)nicotinamide and (S) N-(5-((4-chlorobenzyl)oxy)-1,3,4-thiadiazol-2-yl)-2-(3-methyl-5-oxopiperazin-1-yl)nicotinamide]: the IC50 lay within 0.2 to 0.5 µM. Next, `O=C(Nc1nnc(OCc2ccc(Cl)cc2)s1)c1cncn1C1CCOCC1` [Example 55, N-(5-((4-chlorobenzyl)oxy)-1,3,4-thiadiazol-2-yl)-1-(tetrahydro-2H-pyran-4-yl)-1H-imidazole-5-carboxamide]: 1 to 10 µM; `O=C(Nc1nnc(OCc2ccc(Cl)cc2)s1)c1cccnc1N1CCN2C(=O)CCC2C1` (racemic) [Example 57, (R) N-(5-((4-chlorobenzyl)oxy)-1,3,4-thiadiazol-2-yl)-2-(6-oxohexahydropyrrolo[1,2-a]pyrazin-2(1H)-yl)nicotinamide and (S) N-(5-((4-chlorobenzyl)oxy)-1,3,4-thiadiazol-2-yl)-2-(6-oxohexahydropyrrolo[1,2-a]pyrazin-2(1H)-yl)nicotinamide]: 0.5 to 1 µM. For the compound `COc1ccccc1-c1cc(C#N)ncc1C(=O)Nc1nnc(OCc2ccc(Cl)cc2)s1` [Example 92, N-(5-((4-chlorobenzyl)oxy)-1,3,4-thiadiazol-2-yl)-6-cyano-4-(2-methoxyphenyl)nicotinamide], the concentration for half-maximal inhibition (IC50) is not above 0.2 µM. `O=C1COc2c(cccc2-c2cnccc2C(=O)Nc2nnc(OCc3ccc(Cl)cc3)s2)N1` [Example 120, N-(5-((4-chlorobenzyl)oxy)-1,3,4-thiadiazol-2-yl)-3-(3-oxo-3,4-dihydro-2H-benzo[b][1,4]oxazin-8-yl)isonicotinamide]: the IC50 is not above 0.2 µM. On to `COc1ccccc1-c1cnccc1C(=O)Nc1nnc(OCc2cccc(Cl)c2)s1` [Example 157, N-(5-((3-chlorobenzyl)oxy)-1,3,4-thiadiazol-2-yl)-3-(2-methoxyphenyl)isonicotinamide], for which the IC50 is not above 0.2 µM. Regarding `COc1ccccc1-c1cc(C)ncc1C(=O)Nc1nnc(O[C@H](C)c2ccc(Cl)cc2)s1` [Example 201, N-[5-[(1R)-1-(4-chlorophenyl)ethoxy]-1,3,4-thiadiazol-2-yl]-4-(2-methoxyphenyl)-6-methylpyridine-3-carboxamide], the IC50 lay within 0.5 to 1 µM.

For `COc1ccccc1-c1cc(CCC(N)=O)ncc1C(=O)Nc1nnc(OCc2ccc(Cl)cc2)s1` [Example 163, 6-(3-amino-3-oxopropyl)-N-(5-((4-chlorobenzyl)oxy)-1,3,4-thiadiazol-2-yl)-4-(2-methoxyphenyl)nicotinamide], the IC50 is not above 0.2 µM. `N#Cc1ccc(C(=O)Nc2nnc(OCc3ccc(Cl)cc3)s2)c(N2CCOCC2)c1` [Example 72, N-(5-((4-chlorobenzyl)oxy)-1,3,4-thiadiazol-2-yl)-4-cyano-2-morpholinobenzamide]: the concentration for half-maximal inhibition (IC50) lay within 0.2 to 0.5 µM. Next, `Cc1cc(-c2ccccc2OC(F)F)c(C(=O)Nc2nnc(OCc3ccc(Cl)cn3)s2)cn1` [Example 115, N-[5-[(5-chloropyridin-2-yl)methoxy]-1,3,4-thiadiazol-2-yl]-4-[2-(difluoromethoxy)phenyl]-6-methylpyridine-3-carboxamide]: not above 0.2 µM.
